Consider three compounds from EP1488698A1, “Compositions for descreasing intracellular inositol trisphosphate concentration and uses thereof” (priority 1995, dated 1997).

One data set has as its system cultured neurons. The data set can be described thus: Lysosphingolipid content of cultured neurons by NBDZF fluorescence tagging. The format is cell-based, chick. To be noted: following exposure to 50 µM lysosphingolipid for 1 hour. The source says:
Agonist-binding to metabotropic receptors influences the levels of lysosphingolipid in neuronal membranes. However, there is no convenient methodology available for the measurement of lysosphingolipid content in cultured neurons. As a result, a sensitive method of fluorometric tracing has been devised and is described herein. The measurement of lysosphingolipid content in cultured neurons is based on the stable fluorescence-tagging procedure using 4-fluoro, 7-nitrobenzofuran (NBDZF) described by Nozowa et al J. Neutochem. 59:607-609, 1992). The procedure was applied to: resting neurons; neurons exposed to 100 µM metabotropic receptor agonist for 1 hour; resting neurons exogenously enriched in lysosphingolipids; and neurons exogenously enriched in lysosphingolipids and exposed to metabotropic receptor agonist for 1 hour. The neurons were scraped in batches of 10^7 (1 Petri dish, approximately 8 cm in diameter, is equivalent to 2 mg membrane protein) and subjected to anaylsis.
(§1) Total lipids were removed from the neuron samples by repeated extraction with chloroform:methanol (2:1, vol:vol). The lysosphingolipids were separated from total neuronal lipid in 90 ± 5 % recovery yield (n = 10) by the stepped chromatographic procedure of Van Veldhoven et al. (Anal. Biochem. 183:177-189, 1989). The recovered lysosphingolipids were stably tagged with NBDZF by the rapid procedure of Nozowa et al. (supra). The fluorescence tagged neuronal lysosphingolipids were separated in parallel with reference standards NBDZF-Sph, NBDZF-Psy, and NBDZF-Lsm on high performance silica gel thin layer chromatography plates with acetonitrile:H2O (10:0.5, vol:vol). The highly fluorescent, well separated bands were scraped from the plate. The fluorescence tagged lysosphingolipids are eluted from the scraped silica gel with methanol:1 N HCl (1:0.02, vol:vol). The fluorescence tagged lysosphingolipid eluates were quantitated against reference standards by fluorescence measurement in a Perkin-Elmer LS-5 Fluorescence Spectrometer.
(§2) Sphingolipid content of neurons exposed to sphingosine, lysocerebroside, and lysosphingomyelin was examined as follows. A Petri dish containing approximately 10^7 neurons was incubated with 5 µCi [^3H]myo-Ins in 3 ml DMEM overnight to prelabel the phosphoinositide InsP3 may contain. The neurons were washed with PBS and 3 ml of PBS containing 4.5 g/l glucose was added. Preparations of sphingosine, lysocerebroside, lysosphingomyelin (Sigma Chemical Co., St. Louis, MO) and combinations of each were prepared as the hydrochloride salt dissolved in PBS. The lysosphingolipids were added to the Petri dishes to produce a concentration ranging from 0 - 150 µM. The dishes were held at room temperature for 0.5, 1, or 2 hours, then washed with PBS and incubated with 5 Units of trypsin in glucose/PBS for 4 hours at 37°C. Trypsinization removes non-specifically bound lysosphingolipids that may adhere to extracellular plasma membrane protein domains. Non-specific adherence between cationic micelles of lysosphingolipids and the neuronal glycocalyx is avoided by performing the experiments with lysosphingolipid concentrations below the critical micelle concentration. Neurons were analyzed for lysosphingolipid content as described above.

Data set [1] relates to phospholipase C isoforms beta, delta, and gamma. In words: Free phospholipase C activity in solution (kinetics). The format is biochemical. The following applies: for KM / diminution in Vmax / increase in calcium ion concentration required for optimal activity: 10 µM lysocerebroside or 5 µM lysosphingomyelin.
Procedure: The effects of sphingosine, lysocerebroside, and lysosphingomyelin on the kinetics of pure, immunologically isolated phospholipase C isoforms beta, delta, and gamma (which are commercially available) was examined. For each isoform, 10 µM sphingosine was added to a reaction medium consisting of 1 µg phospholipase C isoform/ml, Tris-malate buffer (50 mM, pH 7.0) containing 100 µM phosphatidyl inositol bis-phosphate tri-ammonium salt, 0.01 µCi tritium labeled phosphatidyl inositol bis-phosphate, 100 mM NaCl, 10 mM CaCl2, and 5 mM 2-merceptoethanol.
Data set [2] in a line: Lysosphingolipid loading of isolated neuronal plasma membrane (fluorescence tagging). To be noted: Plasma Membrane Suspension, 10 μmolar exposure. Format: in vitro ADME, chick.
Excerpt: as §1
Physiologically active phospholipase C is present on the endofacial portion of the plasma membrane. A procedure for examining its activity in an intact membrane is provided. The neuronal membrane preparation described below is useful for determining lysosphingolipid effects on the phosphatidylinositol kinase and phospholipase C activities in intact membranes. One hundred Petri dishes of cultured cortical neurons were incubated overnight with 50 µCi [^3H]myo-inositol per mL of culture medium. Ten Petri dish-samples of cultured neurons (1 X 10^8 neurons; 23 ± 2 mg protein, n = 15) were pooled to produce 2.4 ± 0.2 mg plasma membrane by the following procedure. The collected neurons were homogenized in 5 mL 0.32 M sucrose and centrifuged at 1000 X g for 15 minutes. The supernatant was layered on top of 2 ml 1.2 M sucrose and centrifuged at 300,000 X g for 20 minutes. The sedimented pellet was resuspended by sonication for 10 seconds in 50 mM Tris buffer (pH 7.4), containing 0.3 µM CaCl2, 1 mM MgCl2, and 0.01% ascorbic acid.
The suspended plasma membrane preparation was apportioned into 250 µl samples, each providing approximately 100 µg membrane protein. Sphingosine, psychosine, and lysosphingomyelin were added to each plasma membrane sample. […] Samples were analyzed for lysosphingolipid loading (i.e., membrane lysosphingolipid content following exposure to exogenous sphingolipid) by fluorescence tagging. Table 2 provides the results of exposure of plasma membrane samples to 10 µM lysosphingolipids. Values are reported in pmoles lysosphingolipid/mg plasma membrane protein. Values obtained for isolated plasma membrane and intact neurons are compared.

Another data set relates to Intact neurons. In words: Lysosphingolipid loading of intact neurons (fluorescence tagging). Format: in vitro ADME, chick. To be noted: 10 μmolar exposure.
Excerpt: as §1
as §2, with “The dishes were held at room temperature for 0.5, 1, or 2 hours, then washed with PBS and incubated with 5 Units of trypsin in glucose/PBS for 4 hours at 37°C.” left out
The suspended plasma membrane preparation was apportioned into 250 µl samples, each providing approximately 100 µg membrane protein. Sphingosine, psychosine, and lysosphingomyelin were added to each plasma membrane sample. The samples were held at room temperature for 3 hours, centrifuged at 300,000 X g for 30 minutes, and the supernatant discarded. Samples were analyzed for lysosphingolipid loading (i.e., membrane lysosphingolipid content following exposure to exogenous sphingolipid) by fluorescence tagging. Table 2 provides the results of exposure of plasma membrane samples to 10 µM lysosphingolipids. Values are reported in pmoles lysosphingolipid/mg plasma membrane protein. Values obtained for isolated plasma membrane and intact neurons are compared.

With `CCCCCCCCCCCCC/C=C/[C@@H](O)[C@@H](N)COP(=O)([O-])OCC[N+](C)(C)C` [lysosphingomyelin, sphingosyl phosphorylcholine], the “content of sphingosine in the neurons” value with cultured neurons is recorded as 105 ± 0.15 pmoles/mg protein. For the same compound, in data set [1], the KM entry is reported as “no change”, the “diminution in Vmax” value is 60% ± 10% and the “increase in calcium ion concentration required for optimal activity” value was determined as 5 fold. In data set [2], the “membrane lysosphingolipid content, 0 hours of incubation” value is recorded as 5±1 pmoles lysosphingolipid/mg plasma membrane protein; the “membrane lysosphingolipid content, 0.5 hours of incubation” value is on record as 65±15 pmoles lysosphingolipid/mg plasma membrane protein; the “membrane lysosphingolipid content, 1.0 hours of incubation” value was 110±15 pmoles lysosphingolipid/mg plasma membrane protein; the “membrane lysosphingolipid content, 2.0 hours of incubation” value is 120±10 pmoles lysosphingolipid/mg plasma membrane protein. Also, in data set [2], the “membrane lysosphingolipid content, 3.0 hours of incubation” value is 145±25 pmoles lysosphingolipid/mg plasma membrane protein. Further, in the data set with Intact neurons, the “lysosphingolipid content, 0 hours of incubation” value is recorded as 5±1 pmoles lysosphingolipid/mg plasma membrane protein; the “lysosphingolipid content, 0.5 hours of incubation” value is 8±2 pmoles lysosphingolipid/mg plasma membrane protein; the “lysosphingolipid content, 1.0 hours of incubation” value is given as 20±5 pmoles lysosphingolipid/mg plasma membrane protein; the “lysosphingolipid content, 2.0 hours of incubation” value was 45±5 pmoles lysosphingolipid/mg plasma membrane protein. Further, the “lysosphingolipid content, 3.0 hours of incubation” value in the data set on Intact neurons is 55±15 pmoles lysosphingolipid/mg plasma membrane protein.
With `CCCCCCCCCCCCC/C=C/[C@@H](O)[C@@H](N)CO[C@@H]1O[C@H](CO)[C@H](O)[C@H](O)[C@H]1O` [psychosine], in the data set with cultured neurons, the “content of sphingosine in the neurons” value came to 220 ± 45 pmoles/mg protein. Also, in data set [1], the KM result is reported as “no change”, the “diminution in Vmax” value is 60% ± 10% and the “increase in calcium ion concentration required for optimal activity” value is given as 5 fold. For the same compound, in data set [2], the “membrane lysosphingolipid content, 0 hours of incubation” value was 45±5 pmoles lysosphingolipid/mg plasma membrane protein; the “membrane lysosphingolipid content, 0.5 hours of incubation” value was 75±20 pmoles lysosphingolipid/mg plasma membrane protein; the “membrane lysosphingolipid content, 1.0 hours of incubation” value is 120±15 pmoles lysosphingolipid/mg plasma membrane protein; the “membrane lysosphingolipid content, 2.0 hours of incubation” value is 180±15 pmoles lysosphingolipid/mg plasma membrane protein. Further, in data set [2], the “membrane lysosphingolipid content, 3.0 hours of incubation” value is listed as 175±20 pmoles lysosphingolipid/mg plasma membrane protein. Further, in the data set with Intact neurons, the “lysosphingolipid content, 0 hours of incubation” value was 25±5 pmoles lysosphingolipid/mg plasma membrane protein; the “lysosphingolipid content, 0.5 hours of incubation” value is on record as 35±15 pmoles lysosphingolipid/mg plasma membrane protein; the “lysosphingolipid content, 1.0 hours of incubation” value is on record as 45±10 pmoles lysosphingolipid/mg plasma membrane protein; the “lysosphingolipid content, 2.0 hours of incubation” value is 80±5 pmoles lysosphingolipid/mg plasma membrane protein. In the data set with Intact neurons, the “lysosphingolipid content, 3.0 hours of incubation” value is 80±5 pmoles lysosphingolipid/mg plasma membrane protein.
Take `CCCCCCCCCCCCC/C=C/[C@@H](O)[C@@H](N)CO` [sphingosine]: in the data set on cultured neurons, the “content of sphingosine in the neurons” value is recorded as 430 ± 70 pmoles/mg protein. Further, in data set [1] (10 µM sphingosine), the “KM for substrate phosphatidylinositol bis-phosphate” value is “no effect” and the “calcium ion concentration required for optimal activity” value was “a decrease”. Besides, the “increase in Vmax” value in data set [1] (10 µM sphingosine, each isoform) is recorded as “approximately 2 fold”. Besides, in data set [2], the “membrane lysosphingolipid content, 0 hours of incubation” value is 105±5 pmoles lysosphingolipid/mg plasma membrane protein; the “membrane lysosphingolipid content, 0.5 hours of incubation” value is reported as 113±15 pmoles lysosphingolipid/mg plasma membrane protein; the “membrane lysosphingolipid content, 1.0 hours of incubation” value is given as 140±15 pmoles lysosphingolipid/mg plasma membrane protein; the “membrane lysosphingolipid content, 2.0 hours of incubation” value is reported as 165±20 pmoles lysosphingolipid/mg plasma membrane protein. Further, in data set [2], the “membrane lysosphingolipid content, 3.0 hours of incubation” value was 175±25 pmoles lysosphingolipid/mg plasma membrane protein. In addition, in the data set on Intact neurons, the “lysosphingolipid content, 0 hours of incubation” value is recorded as 85±15 pmoles lysosphingolipid/mg plasma membrane protein; the “lysosphingolipid content, 0.5 hours of incubation” value is listed as 85±20 pmoles lysosphingolipid/mg plasma membrane protein; the “lysosphingolipid content, 1.0 hours of incubation” value is 110±15 pmoles lysosphingolipid/mg plasma membrane protein; the “lysosphingolipid content, 2.0 hours of incubation” value is reported as 105±5 pmoles lysosphingolipid/mg plasma membrane protein. For the same compound, in the data set with Intact neurons, the “lysosphingolipid content, 3.0 hours of incubation” value is on record as 115±15 pmoles lysosphingolipid/mg plasma membrane protein.
